# Results reported in patent US8802597B2, “Herbicidal pyrimidines” (E I du Pont de Nemours and Company, priority 2003, dated 2014).
# What was measured:
# Assay type in all cases: in vivo
# [1] = system: lambsquarters (Chenopodium album); assay: Test B pre/postemergence
# Outline: (§1)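 Scores reflect visual comparison with untreated controls, where 0 means no effect and 100 complete control. Plants stayed 13 to 15 days in the greenhouse after pre- or postemergence treatment with compounds carried in a non-phytotoxic solvent and surfactant.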
# [2] = system: barnyardgrass (Echinochloa crus-galli); assay: Test B pre/postemergence
# Outline: as §1
# [3] = system: pigweed (Amaranthus retroflexus); assay: Test B pre/postemergence
# Outline: as §1
# [4] = system: velvetleaf (Abutilon theophrasti); assay: Test B pre/postemergence
# Outline: as §1
# corn (Zea mays) = assay: Test B pre/postemergence
# Outline: as §1
# [5] = system: morningglory (Ipomoea coccinea); assay: Test B pre/postemergence
# Outline: as §1
# [6] = system: wheat (Triticum aestivum); assay: Test B pre/postemergence
# Outline: as §1
# [7] = system: crabgrass (Digitaria sanguinalis); assay: Test B pre/postemergence
# Outline: as §1
# [8] = system: giant foxtail (Setaria faberii); assay: Test B pre/postemergence
# Outline: as §1
# [9] = system: cocklebur (Xanthium strumarium); assay: Test B pre/postemergence
# Outline: as §1
# [10] = system: Surinam grass (Brachiaria decumbens); assay: Test B pre/postemergence
# Outline: as §1
# [11] = system: barnyardgrass (Echinochloa crus-galli); assay: Test B flooded paddy test; settings: Flood
# Outline: (§2)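 Visual injury scoring (0 = no effect, 100 = complete control) versus controls made 13 to 15 days after treatment in the greenhouse. Test species were grown in flooded paddy to the 2-leaf stage: rice, barnyardgrass, umbrella sedge, duck salad.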
# [12] = system: duck salad (Heteranthera limosa); assay: Test B flooded paddy test; settings: Flood, scale 0 to 100
# Outline: as §2
# [13] = system: umbrella sedge (Cyperus difformis); assay: Test B flooded paddy test; settings: Flood, scale 0 to 100
# Outline: as §2
# rice (Oryza sativa) = assay: Test B flooded paddy test; settings: Flood, scale 0 to 100
# Outline: as §2
# [14] = system: blackgrass (Alopecurus myosuroides); assay: Test B postemergence; settings: for Blackgrass plant response rating: scale 0 to 100 (0 no effect, 100 complete control)
# Outline: as §1
# wild oat (Avena fatua) = assay: Test B postemergence; settings: for Oat, Wild plant response rating: scale 0 to 100 (0 no effect, 100 complete control)
# Outline: as §1
# [15] = Postemergence, 125 g ai/ha, scale 0 to 100 (0 no effect, 100 complete control)
# [16] = Postemergence, 500 g ai/ha, scale 0 to 100
# [17] = Preemergence, 125 g ai/ha, scale 0 to 100 (0 no effect, 100 complete control)
# [18] = Preemergence, 500 g ai/ha, scale 0 to 100 (0 no effect, 100 complete control)
# [19] = Postemergence, 62 g ai/ha, scale 0 to 100 (0 no effect, 100 complete control)
# [20] = Preemergence, 62 g ai/ha, scale 0 to 100, 0 no effect, 100 complete control
smiles,measurement,setting,value
Nc1nc(C2CC2)nc(C=NO)c1Br [Compound 27],Lambsquarters plant response rating,[1]; [15],80
same,"Plant response rating, Lambsquarters",[1]; [16],90
same,"Plant response rating, Lambsquarters",[1]; [17],90
same,Lambsquarters plant response rating,[1]; [18],100
same,Barnyardgrass plant response rating,[2]; [15],0
same,"Plant response rating, Barnyardgrass",[2]; [16],0
same,"Plant response rating, Barnyardgrass",[2]; [17],30
same,Barnyardgrass plant response rating,[2]; [18],60
same,Pigweed plant response rating,[3]; [15],60
same,"Plant response rating, Pigweed",[3]; [16],70
same,"Plant response rating, Pigweed",[3]; [17],90
same,Pigweed plant response rating,[3]; [18],100
same,Velvetleaf plant response rating,[4]; [15],60
same,"Plant response rating, Velvetleaf",[4]; [16],70
same,"Plant response rating, Velvetleaf",[4]; [17],80
same,Velvetleaf plant response rating,[4]; [18],90
same,Corn plant response rating,corn (Zea mays); [15],0
same,"Plant response rating, Corn",corn (Zea mays); [16],20
same,"Plant response rating, Corn",corn (Zea mays); [17],10
same,Corn plant response rating,corn (Zea mays); [18],50
same,Morningglory plant response rating,[5]; [15],70
same,"Plant response rating, Morningglory",[5]; [16],90
same,"Plant response rating, Morningglory",[5]; [17],80
same,Morningglory plant response rating,[5]; [18],90
same,Wheat plant response rating,[6]; [15],20
same,"Plant response rating, Wheat",[6]; [16],30
same,"Plant response rating, Wheat",[6]; [17],10
same,Wheat plant response rating,[6]; [18],50
same,Crabgrass plant response rating,[7]; [15],10
same,"Plant response rating, Crabgrass",[7]; [16],10
same,"Plant response rating, Crabgrass",[7]; [17],30
same,Crabgrass plant response rating,[7]; [18],70
same,"Foxtail, Giant plant response rating",[8]; [15],20
same,"Plant response rating, Foxtail, Giant",[8]; [16],30
same,"Plant response rating, Foxtail, Giant",[8]; [17],0
same,"Foxtail, Giant plant response rating",[8]; [18],40
same,Cocklebur plant response rating,[9]; [15],100
same,"Plant response rating, Cocklebur",[9]; [16],100
same,"Plant response rating, Cocklebur",[9]; [17],80
same,Cocklebur plant response rating,[9]; [18],90
same,Surinam Grass plant response rating,[10]; [15],0
same,"Plant response rating, Surinam Grass",[10]; [16],0
same,"Plant response rating, Surinam Grass",[10]; [17],0
same,Surinam Grass plant response rating,[10]; [18],70
same,"Plant response rating, Barnyardgrass","[11]; 1000 g ai/ha, scale 0 (no effect) to 100 (complete control)",0
same,"Plant response rating, Ducksalad",[12]; 1000 g ai/ha,60
same,"Plant response rating, Sedge, Umbrella",[13]; 1000 g ai/ha,60
same,"Plant response rating, Rice",rice (Oryza sativa); 1000 g ai/ha,20
same,Blackgrass plant response rating,[14]; 125 g ai/ha,30
same,"Plant response rating, Blackgrass","[14]; 500 g ai/ha, scale 0 to 100",30
same,"Oat, Wild plant response rating",wild oat (Avena fatua); 125 g ai/ha,20
same,"Plant response rating, Oat, Wild","wild oat (Avena fatua); 500 g ai/ha, scale 0 to 100",30
CCCCOC(=O)c1nc(C2CC2)nc(N)c1Cl [Compound 76],Lambsquarters plant response rating,[1]; [19],100
same,Lambsquarters plant response rating,[1]; [15],100
same,"Plant response rating, Lambsquarters",[1]; [20],90
same,"Plant response rating, Lambsquarters",[1]; [17],100
same,Barnyardgrass plant response rating,[2]; [19],90
same,Barnyardgrass plant response rating,[2]; [15],90
same,"Plant response rating, Barnyardgrass",[2]; [20],40
same,"Plant response rating, Barnyardgrass",[2]; [17],90
same,Pigweed plant response rating,[3]; [19],90
same,Pigweed plant response rating,[3]; [15],100
same,"Plant response rating, Pigweed",[3]; [20],100
same,"Plant response rating, Pigweed",[3]; [17],100
same,Velvetleaf plant response rating,[4]; [19],90
same,Velvetleaf plant response rating,[4]; [15],90
same,"Plant response rating, Velvetleaf",[4]; [20],80
same,"Plant response rating, Velvetleaf",[4]; [17],90
same,Corn plant response rating,corn (Zea mays); [19],50
same,Corn plant response rating,corn (Zea mays); [15],70
same,"Plant response rating, Corn",corn (Zea mays); [20],70
same,"Plant response rating, Corn",corn (Zea mays); [17],80
same,Morningglory plant response rating,[5]; [19],100
same,Morningglory plant response rating,[5]; [15],100
same,"Plant response rating, Morningglory",[5]; [20],100
same,"Plant response rating, Morningglory",[5]; [17],100
same,Wheat plant response rating,[6]; [19],60
same,Wheat plant response rating,[6]; [15],70
same,"Plant response rating, Wheat",[6]; [20],30
same,"Plant response rating, Wheat",[6]; [17],70
same,Crabgrass plant response rating,[7]; [19],70
same,Crabgrass plant response rating,[7]; [15],90
same,"Plant response rating, Crabgrass",[7]; [20],80
same,"Plant response rating, Crabgrass",[7]; [17],90
same,"Foxtail, Giant plant response rating",[8]; [19],60
same,"Foxtail, Giant plant response rating",[8]; [15],80
same,"Plant response rating, Foxtail, Giant",[8]; [20],40
same,"Plant response rating, Foxtail, Giant",[8]; [17],80
same,Cocklebur plant response rating,[9]; [19],60
same,Cocklebur plant response rating,[9]; [15],90
same,"Plant response rating, Cocklebur",[9]; [20],80
same,"Plant response rating, Cocklebur",[9]; [17],100
same,Surinam Grass plant response rating,[10]; [19],70
same,Surinam Grass plant response rating,[10]; [15],80
same,"Plant response rating, Surinam Grass",[10]; [20],70
same,"Plant response rating, Surinam Grass",[10]; [17],90
same,"Plant response rating, Barnyardgrass","[11]; 125 g ai/ha, scale 0 to 100",0
same,"Plant response rating, Barnyardgrass","[11]; 500 g ai/ha, scale 0 to 100",70
same,"Plant response rating, Ducksalad",[12]; 125 g ai/ha,0
same,"Plant response rating, Ducksalad",[12]; 500 g ai/ha,70
same,"Plant response rating, Sedge, Umbrella",[13]; 125 g ai/ha,30
same,"Plant response rating, Sedge, Umbrella",[13]; 500 g ai/ha,70
same,"Plant response rating, Rice",rice (Oryza sativa); 125 g ai/ha,0
same,"Plant response rating, Rice",rice (Oryza sativa); 500 g ai/ha,50
same,Blackgrass plant response rating,[14]; 62 g ai/ha,50
same,Blackgrass plant response rating,[14]; 125 g ai/ha,60
same,"Oat, Wild plant response rating",wild oat (Avena fatua); 62 g ai/ha,50
same,"Oat, Wild plant response rating",wild oat (Avena fatua); 125 g ai/ha,60
